Data from the supplement of paper PMC10307832.

Key:
Test in all cases: relative viability (nuclei count vs DMSO), 5 days (fraction); higher = more cells survive
[1] = tested on: CAL-12T
Summary of the method: (§1)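 Each reported value is a median over duplicate plates. It expresses relative viability: treated-well nuclei count divided by vehicle-well nuclei count. Lung cancer cell lines in 1536-well plates were dosed by pin tool a day after seeding, alone with one drug or with a fixed anchor-drug dose plus five library-drug doses (not always all listed) in √10 steps, and nuclei were counted after 5 days.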

[2] = tested on: COR-L 105
Summary of the method: as §1

[3] = tested on: H3255
Summary of the method: as §1

[4] = tested on: HARA
Summary of the method: as §1

[5] = tested on: HCC-15
Summary of the method: as §1

[6] = tested on: HCC-366
Summary of the method: as §1

[7] = tested on: LC-2-ad
Summary of the method: as §1

[8] = tested on: LU99A
Summary of the method: as §1

[9] = tested on: NCI-H1395
Summary of the method: as §1

[10] = tested on: NCI-H1666
Summary of the method: as §1

[11] = tested on: NCI-H1734
Summary of the method: as §1

[12] = tested on: NCI-H1944; settings: first compound 0.08 µM
Summary of the method: as §1

O=c1[nH]c2ccccc2n1C1CCN(CCCC(c2ccc(F)cc2)c2ccc(F)cc2)CC1 [Pimozide] + CC(=O)Nc1cccc(-n2c(=O)n(C3CC3)c(=O)c3c(Nc4ccc(I)cc4F)n(C)c(=O)c(C)c32)c1 [Trametinib] (partner 0.02 µM)
relative viability ([1]; first compound 0.08 µM): 0.326 | relative viability ([1]; first compound 0.253 µM): 0.291 | relative viability ([1]; first compound 0.8 µM): 0.34 | relative viability ([1]; first compound 2.53 µM): 0.272 | relative viability ([1]; first compound 8 µM): 0.251 | relative viability ([2]; first compound 0.08 µM): 0.399 | relative viability ([2]; first compound 0.253 µM): 0.418 | relative viability ([2]; first compound 0.8 µM): 0.425 | relative viability ([2]; first compound 2.53 µM): 0.437 | relative viability ([2]; first compound 8 µM): 0.779 | relative viability ([3]; first compound 0.253 µM): 0.577 | relative viability ([3]; first compound 0.8 µM): 0.562 | relative viability ([3]; first compound 2.53 µM): 0.564 | relative viability ([3]; first compound 8 µM): 0.623 | relative viability ([4]; first compound 0.08 µM): 0.612 | relative viability ([4]; first compound 0.253 µM): 0.662 | relative viability ([4]; first compound 0.8 µM): 0.739 | relative viability ([4]; first compound 2.53 µM): 0.458 | relative viability ([4]; first compound 8 µM): 0.631 | relative viability ([5]; first compound 0.08 µM): 0.398 | relative viability ([5]; first compound 0.253 µM): 0.355 | relative viability ([5]; first compound 0.8 µM): 0.386 | relative viability ([5]; first compound 2.53 µM): 0.358 | relative viability ([5]; first compound 8 µM): 0.34 | relative viability ([6]; first compound 0.08 µM): 0.32 | relative viability ([6]; first compound 0.253 µM): 0.282 | relative viability ([6]; first compound 0.8 µM): 0.361 | relative viability ([6]; first compound 2.53 µM): 0.298 | relative viability ([6]; first compound 8 µM): 0.34 | relative viability ([7]; first compound 0.08 µM): 0.886 | relative viability ([7]; first compound 0.253 µM): 0.819 | relative viability ([7]; first compound 0.8 µM): 0.893 | relative viability ([7]; first compound 2.53 µM): 0.904 | relative viability ([7]; first compound 8 µM): 0.897 | relative viability ([8]; first compound 0.08 µM): 0.66 | relative viability ([8]; first compound 0.8 µM): 0.522 | relative viability ([8]; first compound 2.53 µM): 0.48 | relative viability ([8]; first compound 8 µM): 0.524 | relative viability ([9]; first compound 0.08 µM): 0.929 | relative viability ([9]; first compound 0.253 µM): 0.924 | relative viability ([9]; first compound 0.8 µM): 0.993 | relative viability ([9]; first compound 2.53 µM): 1.09 | relative viability ([9]; first compound 8 µM): 0.916 | relative viability ([10]; first compound 0.08 µM): 0.888 | relative viability ([10]; first compound 0.253 µM): 0.804 | relative viability ([10]; first compound 0.8 µM): 0.835 | relative viability ([10]; first compound 2.53 µM): 0.866 | relative viability ([10]; first compound 8 µM): 0.787 | relative viability ([11]; first compound 0.08 µM): 0.685 | relative viability ([11]; first compound 0.253 µM): 0.697 | relative viability ([11]; first compound 0.8 µM): 0.734 | relative viability ([11]; first compound 2.53 µM): 0.657 | relative viability ([11]; first compound 8 µM): 0.673 | relative viability [12]: 0.396
